The values that follow come from US11667649B2, “Heteroaromatic macrocyclic ether chemotherapeutic agents” (Nuvalent, Inc., priority 2020, dated 2023).

In assay [1] the target is T1, ROS1-G2032R kinase domain (Homo sapiens, UniProt P08922, G2032R).
T1 construct: TRKA-wt (1 nM, BPS Bio, 40280) kinase domains in buffer; purchased SignalChem R14-12BG
Description: Biochemical kinase assay, ROS1-G2032R. As to conditions: 2 mM ATP substrate solution, read-out: Ki^app ROS1-G2032R. In a few lines: (§1)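 Compound in DMSO added first, then substrate solution (ATP 2 mM; AQT0101 or AQT0104, 26 μM; pH 7.5 HEPES, 10 mM MgCl2), then kinase solution with enzyme at 0.5–3 nM depending on construct. Kinetic read every 2 min for 120 min at 30° C; Ki^app by Morrison regression.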

The target of assay [2] is T2, ALK L1196M/G1202R kinase domain (Homo sapiens, UniProt Q9UM73, G1202R/L1196M).
T2 construct: TRKA-wt (1 nM, BPS Bio, 40280) kinase domains in buffer; purchased SignalChem A19-12NG
As to the kind of experiment: Biochemical kinase assay, ALK L1196M/G1202R. As to conditions: 2 mM ATP substrate solution, read-out: Ki^app ALK-L1196M-G1202R. A digest of the protocol:
as §1

A further assay deals with T3, ROS1-wt kinase domain (Homo sapiens, UniProt P08922).
T3 construct: TRKA-wt (1 nM, BPS Bio, 40280) kinase domains in buffer; purchased Carna 08-163
Description: Biochemical kinase assay, ROS1-wt. As to conditions: 2 mM ATP substrate solution, read-out: Ki^app ROS1-wt. In a few lines: as §1

The next assay deals with T4, TRKA-wt kinase domain (Homo sapiens, UniProt P04629).
T4 construct: TRKA-wt (1 nM, BPS Bio, 40280) kinase domains in buffer; purchased BPS Bio 40280
Description: Biochemical kinase assay, TRKA-wt. As to conditions: 2 mM ATP substrate solution, read-out: Ki^app TRKA-wt. A digest of the protocol:
as §1

Another assay has as its target T5, ALK-wt kinase domain (Homo sapiens, UniProt Q9UM73).
T5 construct: TRKA-wt (1 nM, BPS Bio, 40280) kinase domains in buffer; purchased Carna 08-518
As to the kind of experiment: Biochemical kinase assay, ALK-wt. As to conditions: 2 mM ATP substrate solution, read-out: Ki^app ALK-wt. A digest of the protocol:
as §1

Molecules are shown by their SMILES.

For the compound `CCn1ncc2c1-c1cnc(N)c(c1)O[C@H](C)c1cc(F)ccc1-c1nc(OC)ccc1C2` [Compound 145], the Ki in assay [1] is less than 0.05 µM; in assay [2], less than 0.05 µM; at ROS1-wt kinase domain, less than 0.05 µM; on TRKA-wt kinase domain, 0.05 to 0.5 µM; on ALK-wt kinase domain, less than 0.05 µM.
Turning to `C[C@H]1Oc2cc(cnc2N)-c2c(CC3CC3)cnn2Cc2cccnc2-c2ccc(F)cc21` [Compound 146], the Ki in assay [1] was less than 0.05 µM; in assay [2], less than 0.05 µM; at ROS1-wt kinase domain, less than 0.05 µM; at TRKA-wt kinase domain, 0.05 to 0.5 µM; at ALK-wt kinase domain, less than 0.05 µM.
Take `CCn1nc(OC)c2c1-c1cnc(N)c(c1)O[C@H](C)c1cc(F)ccc1-n1nc(C(F)F)cc1C2` [Compound 147]: the Ki (in assay [1]; in assay [2]; at ROS1-wt kinase domain; on TRKA-wt kinase domain; on ALK-wt kinase domain) was less than 0.05 µM throughout.
Turning to `CCn1nc(Br)c2c1-c1cnc(N)c(c1)O[C@H](C)c1cc(F)ccc1-c1nn(C)cc1C2` [Compound 148], the Ki in assay [1] is 0.05 to 0.5 µM; in assay [2], less than 0.05 µM; on ROS1-wt kinase domain, less than 0.05 µM; on TRKA-wt kinase domain, greater than 0.5 µM; at ALK-wt kinase domain it was less than 0.05 µM.
Turning to `CCn1ncc2c1-c1cnc(N)c(c1)O[C@H](C)c1cc(F)ccc1-c1ncc(OC)cc1C2` [Compound 149], the Ki (in assay [1]; in assay [2]; on ROS1-wt kinase domain; at TRKA-wt kinase domain; on ALK-wt kinase domain) was less than 0.05 µM throughout.
In the case of `CCn1ncc2c1-c1cnc(N)c(c1)O[C@H](C)c1cc(F)ccc1-c1nn(C(C)(C)C)cc1C2` [Compound 150], the Ki in assay [1] was less than 0.05 µM; in assay [2] it was less than 0.05 µM; on ROS1-wt kinase domain, less than 0.05 µM; on TRKA-wt kinase domain it was 0.05 to 0.5 µM; on ALK-wt kinase domain, less than 0.05 µM.
As for `CCn1ncc2c1-c1cnc(N)c(c1)O[C@H](C)c1cc(F)ccc1-c1nccc(OC)c1C2` [Compound 151], the Ki (in assay [1]; in assay [2]; on ROS1-wt kinase domain; on TRKA-wt kinase domain; at ALK-wt kinase domain) was less than 0.05 µM each time.
For the compound `CCc1onc2c1-c1cnc(N)c(c1)O[C@H](C)c1cc(F)ccc1-c1nn(C)cc1C2` [Compound 152], the Ki (in assay [1]; in assay [2]; at ROS1-wt kinase domain; on TRKA-wt kinase domain; at ALK-wt kinase domain) was less than 0.05 µM in each case.
In the case of `CCn1nc(C(C)C)c2c1-c1cnc(N)c(c1)O[C@H](C)c1cc(F)ccc1-c1nn(C)cc1C2` [Compound 153], the Ki (in assay [1]; in assay [2]; on ROS1-wt kinase domain; at TRKA-wt kinase domain; on ALK-wt kinase domain) was less than 0.05 µM each time.
Regarding `CC(C)Cn1ncc2c1-c1cnc(N)c(c1)O[C@H](C)c1cc(F)ccc1-c1nn(C)cc1C2` [Compound 154], the Ki in assay [1] is less than 0.05 µM; in assay [2], less than 0.05 µM; on ROS1-wt kinase domain it was less than 0.05 µM; at TRKA-wt kinase domain, greater than 0.5 µM; at ALK-wt kinase domain it was less than 0.05 µM.
Consider `CCc1nsc2c1-c1cnc(N)c(c1)O[C@H](C)c1cc(F)ccc1-c1nn(C)cc1C2` [Compound 155], for which the Ki (in assay [1]; in assay [2]; at ROS1-wt kinase domain; on TRKA-wt kinase domain; at ALK-wt kinase domain) was less than 0.05 µM throughout.
Regarding `CCn1nc(C#N)c2c1-c1cnc(N)c(c1)O[C@H](C)c1cc(F)ccc1-c1nn(C)cc1C2` [Compound 156], the Ki in assay [1] was less than 0.05 µM; in assay [2], less than 0.05 µM; at ROS1-wt kinase domain, less than 0.05 µM; on TRKA-wt kinase domain, 0.05 to 0.5 µM; on ALK-wt kinase domain, less than 0.05 µM.
`CCn1ncc2c1-c1cnc(N)c(c1)O[C@H](C)c1cc(F)ccc1-c1nn(C)c(OC)c1C2` [Compound 157]: the Ki (in assay [1]; in assay [2]; at ROS1-wt kinase domain; on TRKA-wt kinase domain; at ALK-wt kinase domain) was less than 0.05 µM throughout.
As to `CCc1nn(CC)c2c1Cc1cn(C)nc1-c1ccc(F)cc1[C@@H](C)Oc1cc-2cnc1N` [Compound 158], the Ki (in assay [1]; in assay [2]; at ROS1-wt kinase domain; on TRKA-wt kinase domain; at ALK-wt kinase domain) was less than 0.05 µM each time.
`C[C@H]1Oc2cc(cnc2N)-c2c(cnn2CC2CC2)Cc2cn(C(F)F)nc2-c2ccc(F)cc21` [Compound 160]: the Ki in assay [1] was less than 0.05 µM; in assay [2], less than 0.05 µM; on ROS1-wt kinase domain it was less than 0.05 µM; on TRKA-wt kinase domain it was greater than 0.5 µM; at ALK-wt kinase domain it was less than 0.05 µM.
Regarding `CCc1noc2c1-c1cnc(N)c(n1)O[C@H](C)c1cc(F)ccc1-c1nn(C)cc1C2` [Compound 162], the Ki (in assay [1]; in assay [2]; on ROS1-wt kinase domain; on TRKA-wt kinase domain; at ALK-wt kinase domain) was less than 0.05 µM each time.
With `CCn1ncc2c1-c1cnc(N)c(n1)OC(C)c1cc(F)ccc1-c1nccn1C2` (stereo not shown) [Compound 163], the Ki in assay [1] is less than 0.05 µM; in assay [2], less than 0.05 µM; on ROS1-wt kinase domain, less than 0.05 µM; at TRKA-wt kinase domain it was 0.05 to 0.5 µM; at ALK-wt kinase domain, less than 0.05 µM.
`CCn1ncc2c1-c1cnc(N)c(n1)OC(C)c1cc(F)ccc1-c1c(cnn1C)C2` (stereo not shown) [Compound 164]: the Ki in assay [1] is less than 0.05 µM; in assay [2] it was 0.05 to 0.5 µM; on ROS1-wt kinase domain it was less than 0.05 µM; on TRKA-wt kinase domain, greater than 0.5 µM; at ALK-wt kinase domain it was less than 0.05 µM.
With `CCn1ncc2c1-c1ccc(F)cc1C(C)Oc1nc(cnc1N)-c1c(cnn1C)C2` (stereo not shown) [Compound 165], the Ki in assay [1] is 0.05 to 0.5 µM; in assay [2], 0.05 to 0.5 µM; on ROS1-wt kinase domain, less than 0.05 µM; at TRKA-wt kinase domain it was 0.05 to 0.5 µM; on ALK-wt kinase domain, less than 0.05 µM.
Consider `CCn1ncc2c1-c1cnc(N)c(c1)OC(CO)c1cc(F)ccc1-c1nccn1C2` (stereo not shown) [Compound 166], for which the Ki in assay [1] is 0.05 to 0.5 µM; in assay [2], 0.05 to 0.5 µM; at ROS1-wt kinase domain, less than 0.05 µM; at TRKA-wt kinase domain, greater than 0.5 µM; at ALK-wt kinase domain it was less than 0.05 µM.
Regarding `CC1Oc2cc(cnc2N)-c2c(C#N)ncn2Cc2cnn(C)c2-c2ccc(F)cc21` (stereo not shown) [Compound 167], the Ki is 0.05 to 0.5 µM in assay [1]; 0.05 to 0.5 µM in assay [2]; less than 0.05 µM at ROS1-wt kinase domain; greater than 0.5 µM at TRKA-wt kinase domain; less than 0.05 µM at ALK-wt kinase domain.
Consider `CC1Oc2cc(cnc2N)-c2c(n[nH]c2C#N)Cc2cnn(C)c2-c2ccc(F)cc21` (stereo not shown) [Compound 168], for which the Ki in assay [1] is less than 0.05 µM; in assay [2], less than 0.05 µM; at ROS1-wt kinase domain, less than 0.05 µM; at TRKA-wt kinase domain, greater than 0.5 µM; at ALK-wt kinase domain, less than 0.05 µM.
Take `C[C@H]1Oc2cc(cnc2N)-c2c(nn(C)c2C#N)Cc2ccnn2-c2ccc(F)cc21` [Compound 169]: the Ki (in assay [1]; in assay [2]; at ROS1-wt kinase domain; on TRKA-wt kinase domain; at ALK-wt kinase domain) was less than 0.05 µM throughout.
Turning to `CCc1nn(C)c2c1-c1cnc(N)c(c1)O[C@H](C)c1cc(F)ccc1-c1nn(C)cc1C2` [Compound 171], the Ki (in assay [1]; in assay [2]; at ROS1-wt kinase domain; at TRKA-wt kinase domain; at ALK-wt kinase domain) was less than 0.05 µM each time.
In the case of `C[C@H]1Oc2cc(cnc2N)-c2c(nn(C)c2C2CCC2)Cc2ccnn2-c2ccc(F)cc21` [Compound 174], the Ki in assay [1] was less than 0.05 µM; in assay [2], less than 0.05 µM; at ROS1-wt kinase domain, less than 0.05 µM; on TRKA-wt kinase domain it was 0.05 to 0.5 µM; on ALK-wt kinase domain, less than 0.05 µM.
As to `CCc1nn(C)c2c1-c1cnc(N)c(c1)OCc1cc(F)ccc1-c1nc(C)sc1C2` [Compound 175], the Ki in assay [1] was less than 0.05 µM; in assay [2], less than 0.05 µM; on ROS1-wt kinase domain, less than 0.05 µM; on TRKA-wt kinase domain, 0.05 to 0.5 µM; at ALK-wt kinase domain it was less than 0.05 µM.
As for `CCc1nn(C)c2c1-c1cnc(N)c(c1)OCc1cc(F)ccc1-c1nn(C)cc1C2` [Compound 176], the Ki in assay [1] was 0.05 to 0.5 µM; in assay [2], less than 0.05 µM; at ROS1-wt kinase domain it was less than 0.05 µM; on TRKA-wt kinase domain, greater than 0.5 µM; on ALK-wt kinase domain it was less than 0.05 µM.
On to `C[C@H]1Oc2cc(cnc2N)-c2c(nn(C)c2CC2CC2)Cc2ccnn2-c2ccc(F)cc21` [Compound 177], for which the Ki is less than 0.05 µM in assay [1]; less than 0.05 µM in assay [2]; less than 0.05 µM on ROS1-wt kinase domain; 0.05 to 0.5 µM at TRKA-wt kinase domain; less than 0.05 µM on ALK-wt kinase domain.
With `C[C@H]1Oc2cc(cnc2N)-c2c(CC3CC3)nn(C)c2Cc2cn(C)nc2-c2ccc(F)cc21` [Compound 178], the Ki was less than 0.05 µM in assay [1]; less than 0.05 µM in assay [2]; less than 0.05 µM on ROS1-wt kinase domain; 0.05 to 0.5 µM on TRKA-wt kinase domain; less than 0.05 µM at ALK-wt kinase domain.
